pEC50: −log10 of the molar value. Like-named read-outs stand apart in the source and are kept apart here.

The assay concerns the target T1, 5-HT1D-like receptor (Oryctolagus cuniculus, UniProt P49144).
T1 construct: Ring segments of the vein (4-5 mm in length) were cut and the endothelium gently removed; from tissue; host or cells: saphenous vein rings, endothelium removed, male New Zealand White rabbits
Put plainly: Agonist assay: contraction of rabbit isolated saphenous vein (5-HT1D-like receptor agonist activity). More on the design: species or system rabbit (New Zealand White). The method, then:
The saphenous veins from both the left and right side were cleaned of fat and connective tissue and placed in Krebs solution (118 mM NaCl, 11 mM glucose, 25 mM NaHCO3, 4.7 mM KCl, 2.5 mM CaCl2.2H2 O, 1.2 mM KH2 PO4, and 1.2 mM MgSO4.7H2 O. Ring segments of the vein (4-5 mm in length) were cut and the endothelium gently removed. The segments were mounted in 10 mL baths containing Krebs buffer and were constantly aerated with 95% oxygen/5% carbon dioxide and maintained at 37° C. and pH 7.4 in order to record the isometric tension. A resting tension of 2.5 g was applied and the tissues allowed to equilibrate for 90 minutes, with washing every 15-20 minutes. After the equilibrium period, the rings were depolarized by the addition of two aliquots of KCl (80 mM final concentration) separated by a 20 minute washing period. The tissues were then exposed to prazosin, idazoxan and indomethacin (all 1 μM final concentration) for 30 minutes in order to exclude the actions of α1 - and α2 -adrenergic receptors and prostaglandin receptors respectively. […] Responses were calculated as a percentage of the maximal contraction evoked by 80 mM KCl. Only one compound was tested per preparation.
EC50 represents the concentration of the compound which causes 50% of the maximum contraction effected by it.

Setting [1] is: rabbit isolated saphenous vein rings, 37° C., pH 7.4, prazosin, idazoxan and indomethacin 1 μM present, read-out: EC50 (concentration of the compound which causes 50% of the maximum contraction effected by it).

T1 sequence (P49144 whole entry): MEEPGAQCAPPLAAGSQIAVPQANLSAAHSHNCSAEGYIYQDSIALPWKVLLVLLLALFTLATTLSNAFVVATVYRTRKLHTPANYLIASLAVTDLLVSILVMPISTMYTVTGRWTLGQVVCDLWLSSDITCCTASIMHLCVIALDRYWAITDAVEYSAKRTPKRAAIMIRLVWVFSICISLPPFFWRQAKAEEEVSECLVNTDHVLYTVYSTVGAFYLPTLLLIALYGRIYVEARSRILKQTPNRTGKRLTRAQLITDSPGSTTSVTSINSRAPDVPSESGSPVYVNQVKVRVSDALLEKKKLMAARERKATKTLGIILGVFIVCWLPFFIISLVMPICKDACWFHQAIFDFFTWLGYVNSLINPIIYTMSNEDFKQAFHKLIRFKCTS

As to `CN1CCC[C@@H]1Cc1c[nH]c2ccc(C(C)(C)C)cc12` [Example 7f, (R)-3-[(N-Methylpyrrolidin-2-yl)methyl]-5-tert-butyl-1H-indole], the pEC50 was 7.28. With `Cc1ccc2[nH]cc(C3CCN(C)C3)c2c1` (stereo not drawn) [Example 7i, 5-Methyl-3-(N-methylpyrrolidin-3-yl)-1H-indole], the pEC50 under setting [1] is 6.33. `Cc1ccc2[nH]cc(C[C@H]3CCCN3)c2c1` [Example 7j, (R)-5-Methyl-3-[(pyrrolidin-2-yl)methyl]-1H-indole]: the pEC50 was 6.08. `Cc1ccc2[nH]cc(C[C@@H]3CCCN3C)c2c1` [Example 7h, (S)-3-[(N-Methylpyrrolidin-2-yl)methyl]-5-methyl-1H-indole] showed a pEC50 of 5.74. In turn, `Cc1ccc2[nH]cc(C[C@H]3CCCN3C)c2c1` [Example 7e, (R)-3-[(N-Methylpyrrolidin-2-yl)methyl]-5-methyl-1H-indole] gave a pEC50 of 7.00.

Regarding `CC(C)c1ccc2[nH]cc(C[C@H]3CCCN3C)c2c1` [Example 7g, (R)-3-[(N-Methylpyrrolidin-2-yl)methyl]-5-isopropyl-1H-indole], the pEC50 is 7.54.

The molecule `CC(C)c1ccc2[nH]cc(CCN3CCCC3)c2c1` [Example 8a, 5-Isopropyl-3-(2-pyrrolidinylethyl)-1H-indole] gave a pEC50 of 6.60. As to `CCc1ccc2[nH]cc(C3CCN(C)C3)c2c1` (stereo not drawn) [Example 11c, 5-Ethyl-3-(N-methylpyrrolidin-3-yl)-1H-indole], the pEC50 under setting [1] was 6.05. In the case of `Cc1ccc2[nH]cc(CCN3CCCC3)c2c1` [Example 8c, 5-Methyl-3-(2-pyrrolidinylethyl)-1H-indole], the pEC50 is 6.23. Molecule `CC(C)(C)c1ccc2[nH]cc(CCN3CCCC3)c2c1` [Example 8b, 5-Tert-butyl-3-(2-pyrrolidinylethyl)-1H-indole] had a pEC50 of 5.92. For `Cc1ccc2[nH]cc(CCN3CC=CC3)c2c1` [Example 8d, 5-Methyl-3-(2-pyrrolinylethyl)-1H-indole], the pEC50 was 5.54.

The molecule `CCc1ccc2[nH]cc(C[C@H]3CCCN3C)c2c1` [Example 11b, (R)-5-Ethyl-3-[(N-methylpyrrolidin-2-yl)methyl]-1 H-indole] showed a pEC50 of 7.82.

For the origin of these results see patent US5998462A, “5-alkyl indole compounds” (Allelix Biopharmaceuticals Inc., priority 1996, dated 1999).
